Laboratory results from patent publication US20020065219A1, “Water soluble thiazolyl peptide derivatives” (priority 2000, published 2002).
Values after ≈ are worked out from the molar mass of the structure shown. Where two headings read alike, the source gives them in different places.

How the values were obtained:
Experiment in all cases: MIC, broth micro dilution assay (NCCLS)
Format in all cases: cell-based
[1] = tested on: Staphylococcus aureus A15090; conditions: for MIC: Staphylococcus aureus, read-out: MIC (μg/mL) against Staphylococcus aureus A15090
[2] = tested on: Enterococcus faecalis A20688; conditions: for MIC: Enterococcus faecalis, read-out: MIC (μg/mL) against Enterococcus faecalis A20688
[3] = tested on: Streptococcus pneumoniae A28272; conditions: for MIC: Streptococcus pneumoniae, read-out: MIC (μg/mL) against Streptococcus pneumoniae A28272
[4] = Mueller-Hinton medium, 35° C., 18 hours
[5] = 50% Mueller-Hinton medium and 50% Todd Hewitt medium, 35° C., 18 hours

Row | Structure (SMILES) | MIC (μg/mL) against Staphylococcus aureus A15090 [1] | MIC (μg/mL) against Enterococcus faecalis A20688 [2] | MIC (μg/mL) against Streptococcus pneumoniae A28272 [3] | also measured
1 | COCCOCCOCCN1CCN(CC(NC(=O)c2csc(-c3nc4c(cc3O)-c3nc(cs3)C(=O)NC(C(C)O)C(=O)NC(=C(C)OC)c3nc(cs3)C(=O)NC3c5nc(cs5)C(=O)NC(COC(=O)c5c6c7c(cccc7n5O)COC(=O)C(OC5CC(C)(O)C(N(C)C)C(C)O5)C3OC6)c3nc-4cs3)n2)C(N)=O)CC1 (stereo not drawn) [Example 72] | 4.0 µg/mL (≈ 2.4 µM) | 4.0 µg/mL (≈ 2.4 µM) | 0.5 µg/mL (≈ 0.299 µM) | –
2 | C/C=C1\NC(=O)C(C(C)O)NC(=O)c2csc(n2)-c2cc(O)c(-c3nc(C(=O)NC(CN(C)CCCn4ccnc4)C(N)=O)cs3)nc2-c2csc(n2)C2CSC(=O)c3[nH]c4cccc(c4c3C)COC(=O)C(O)CC(NC(=O)c3csc1n3)c1nc(cs1)C(=O)N2 (stereo not drawn) [Example 101] | – | – | – | MIC ([1]; A15090, Mueller-Hinton medium, 35° C., 18 hours): 0.125 µg/mL (≈ 0.0918 µM); MIC ([2]; A20688, Mueller-Hinton medium, 35° C., 18 hours): 0.125 µg/mL (≈ 0.0918 µM); MIC ([3]; A28272, 50% Mueller-Hinton medium and 50% Todd Hewitt medium, 35° C., 18 hours): 0.003 µg/mL (≈ 0.0022 µM)
3 | COC(C)=C1NC(=O)C(C(C)O)NC(=O)c2csc(n2)-c2cc(O)c(-c3nc(C(=O)NC(CN4CCCC4CO)C(N)=O)cs3)nc2-c2csc(n2)C2COC(=O)c3c4c5c(cccc5n3O)COC(=O)C(OC3CC(C)(O)C(N(C)C)C(C)O3)C(OC4)C(NC(=O)c3csc1n3)c1nc(cs1)C(=O)N2 (stereo not drawn) [Example 78] | – | – | – | MIC (μg/mL) against Staphylococcus aureus A15090 [1, 4]: 0.03 µg/mL (≈ 0.0195 µM); MIC (μg/mL) against Enterococcus faecalis A20688 [2, 4]: 0.125 µg/mL (≈ 0.0812 µM); MIC (μg/mL) against Streptococcus pneumoniae A28272 [3, 5]: 0.007 µg/mL (≈ 0.00455 µM)
4 | CO/C(C)=C1/NC(=O)C(C(C)O)NC(=O)c2csc(n2)-c2cc(O)c(-c3nc(C(=O)NC(CN4CCN(c5ccccn5)CC4)C(N)=O)cs3)nc2-c2csc(n2)C2COC(=O)c3c4c5c(cccc5n3O)COC(=O)C(O[C@H]3C[C@](C)(O)[C@H](N(C)C)[C@H](C)O3)C(OC4)C(NC(=O)c3csc1n3)c1nc(cs1)C(=O)N2 (stereo partly drawn) [Example 48] | 0.125 µg/mL (≈ 0.0781 µM) | 0.25 µg/mL (≈ 0.156 µM) | 0.03 µg/mL (≈ 0.0187 µM) | –
5 | CO/C(C)=C1/NC(=O)C(C(C)O)NC(=O)c2csc(n2)-c2cc(O)c(-c3nc(C(=O)NC(CS(=O)(=O)C4CN5CCC4CC5)C(N)=O)cs3)nc2-c2csc(n2)C2COC(=O)c3c4c5c(cccc5n3O)COC(=O)C(O[C@H]3C[C@](C)(O)C(N(C)C)[C@H](C)O3)C(OC4)C(NC(=O)c3csc1n3)c1nc(cs1)C(=O)N2 (stereo partly drawn) [Example 104] | – | – | – | MIC ([1]; A15090, 18 h): 0.5 µg/mL (≈ 0.31 µM); MIC ([2]; A20688, 18 h): 1 µg/mL (≈ 0.62 µM); MIC ([3]; A28272, 18 h): 0.06 µg/mL (≈ 0.0372 µM)
6 | CNC(=O)On1c2c3c4c(cccc41)COC(=O)C(OC1CC(C)(O)C(N(C)C)C(C)O1)C(OC3)C1NC(=O)c3csc(n3)/C(=C(/C)OC)NC(=O)C(C(C)O)NC(=O)c3csc(n3)-c3cc(O)c(-c4nc(C(=O)NC(CN(CCN(C)C)C(=O)NC)C(N)=O)cs4)nc3-c3csc(n3)C(COC2=O)NC(=O)c2csc1n2 (stereo not drawn) [Example 111] | 1.0 µg/mL (≈ 0.61 µM) | 2.0 µg/mL (≈ 1.22 µM) | 0.06 µg/mL (≈ 0.0366 µM) | –
7 | COC(C)=C1NC(=O)C(C(C)O)NC(=O)c2csc(n2)-c2cc(O)c(-c3nc(C(=O)NC(CN4CCC4CO)C(N)=O)cs3)nc2-c2csc(n2)C2COC(=O)c3c4c5c(cccc5n3O)COC(=O)C(OC3CC(C)(O)C(N(C)C)C(C)O3)C(OC4)C(NC(=O)c3csc1n3)c1nc(cs1)C(=O)N2 (stereo not drawn) [Example 84] | 0.5 µg/mL (≈ 0.328 µM) | 0.25 µg/mL (≈ 0.164 µM) | 0.125 µg/mL (≈ 0.082 µM) | –
8 | CO/C(C)=C1/NC(=O)C(C(C)O)NC(=O)c2csc(n2)-c2cc(O)c(-c3nc(C(=O)NC(CN(C)CC(O)C(O)C(O)C(O)CO)C(N)=O)cs3)nc2-c2csc(n2)C2COC(=O)c3c4c5c(cccc5n3O)COC(=O)C(O[C@H]3C[C@](C)(O)[C@H](N(C)C)[C@H](C)O3)C(OC4)C(NC(=O)c3csc1n3)c1nc(cs1)C(=O)N2 (stereo partly drawn) [Example 31] | – | – | – | MIC (μg/mL) against Staphylococcus aureus A15090 [1, 4]: 0.125 µg/mL (≈ 0.0766 µM); MIC (μg/mL) against Enterococcus faecalis A20688 [2, 4]: 1.0 µg/mL (≈ 0.612 µM); MIC (μg/mL) against Streptococcus pneumoniae A28272 [3, 5]: 0.125 µg/mL (≈ 0.0766 µM)
